Laboratory results from patent US7737309B2, “Clathrate compound, method for controlling concentration of aqueous agricultural chemical active ingredient solution, and agricultural chemical formulation” (Nippon Soda Co., Ltd., priority 2004, dated 2010).
Structures can show the parent of a compound that is named as a salt. Where two headings read alike, the source gives them in different places.

How the values were obtained:
[1] = Measurement of saturated solubility; type: physicochemical; details: for saturated solubility: after standing at 25° C. for 192 hours; for Concentration of acetamiprid: distilled water at 25° C.
Description: After weighing a fixed amount of each of the Clathrate compounds 1 to 4 obtained in Examples 1 to 4 and an acetamiprid as a control in a measuring flask, distilled water at 25° C. was added to obtain an equal volume. After stoppering and up-and-down shaking for 5 times, the measuring flask was allowed to stand in an incubator at 25° C. After up-and-down shaking for 5 times followed by sampling with the passage of time, water at 25° C. was added to obtain an equal volume again, and sampling was carried out up to 192 hours. The concentration of acetamiprid in the sampled solution was measured by HPLC and then the saturated solubility was calculated.

[2] = cited from earlier work
striped flea beetle = assay: Test as a seed treatment agent used in combination with a synthetic pyrethroid agent (rapeseeds); type: in vivo; details: Treatment amount 500 g/100 kg of seeds
Description: (§1) Immediately after that, the vinyl bag was closed, and the rapeseeds were coated with the chemical by vigorously shaking for 30 seconds. These seeds were spread over a tray and then air-dried at room temperature overnight to obtain rapeseeds coated with 500 g of acetamiprid per 100 kg of seeds.
as §1, with “g of bifenthrin and 500 g of acetamiprid per” for “g of acetamiprid per”
The obtained seeds were seeded in a No. 2 pot containing alluvial soil and then cultivated in a greenhouse. […] 2 days after standing, the number of incidences of insect damage due to imagines of striped flea beetle of 3 plants in each experimental plot was counted.

Row | Compound | saturated solubility [1] [ppm] | Concentration of acetamiprid ([1]; 1 hour) | Concentration of acetamiprid ([1]; 3 hours) | Concentration of acetamiprid ([1]; 24 hours) | Concentration of acetamiprid ([1]; 48 hours) | Concentration of acetamiprid ([1]; 72 hours) | Concentration of acetamiprid ([1]; 192 hours) | aqueous solubility ([2]; temperature not given) | other results
1 | C/C(=N\C#N)N(C)Cc1ccc(Cl)nc1 [Acetamiprid, (E)-N1-[(6-chloro-3-pyridyl)methyl]-N2-cyano-N1-methylacetamidine, reference compound] | 3807 | 2,822 ppm | 3,273 ppm | 3,734 ppm | 3,776 ppm | 3,752 ppm | 3,807 ppm | – | aqueous solubility ([2]; 25° C.): 4200 ppm
2 | CNC(=O)Oc1cccc2c1OC(C)(C)O2 [bendiocarb, 2,2-dimethyl-1,3-benzodioxol-4-yl-methylcarbamate.hydrochloride] | – | – | – | – | – | – | – | – | aqueous solubility ([2]; 25° C.): 26000 ppm
3 | CC(=NC#N)N(C)Cc1ccc(Cl)nc1.CCO.Oc1ccc(C(c2ccc(O)cc2)C(c2ccc(O)cc2)c2ccc(O)cc2)cc1 [Clathrate compound 3] | 230 | 156 ppm | 156 ppm | 163 ppm | 179 ppm | 200 ppm | 230 ppm | – | –
4 | CC(=NC#N)N(C)Cc1ccc(Cl)nc1.CC(=NC#N)N(C)Cc1ccc(Cl)nc1.Oc1ccc(C(c2ccc(O)cc2)C(c2ccc(O)cc2)c2ccc(O)cc2)cc1 [Clathrate compound 1] | 232 | 121 ppm | 134 ppm | 193 ppm | 210 ppm | 221 ppm | 232 ppm | – | –
5 | ClC=CCCl [D-D, 1,3-dichloropropene] | – | – | – | – | – | – | – | 2000 ppm | –
6 | CNC(=O)ON=C(C)SC [methomyl, S-methyl-N-(methylcarbamoyloxy)thioacetimidate] | – | – | – | – | – | – | – | 58000 ppm | –
7 | COP(=O)(NC(C)=O)SC (centres unmarked) [acephate, O,S-dimethyl-N-acetylphosphoroamide thioate] | – | – | – | – | – | – | – | about 650000 ppm | –
8 | CC(=NC#N)N(C)Cc1ccc(Cl)nc1.CO.Oc1ccc(C(c2ccc(O)cc2)C(c2ccc(O)cc2)c2ccc(O)cc2)cc1 [Clathrate compound 2] | 238 | 72 ppm | 79 ppm | 161 ppm | 200 ppm | 217 ppm | 238 ppm | – | –
9 | Cc1c(COC(=O)[C@@H]2[C@H](/C=C(\Cl)C(F)(F)F)C2(C)C)cccc1-c1ccccc1 (racemic) [Bifenthrin] | – | – | – | – | – | – | – | – | Insecticidal ratio % after 15 days (striped flea beetle): 75.4%; Number of incidences of insect damage/3 plants after 15 days (striped flea beetle): 98
10 | CCN(Cc1ccc(Cl)nc1)/C(=C/[N+](=O)[O-])NC [nitenpyram, (E)-N-(6-chloro-3-pyridylmethyl)-N-ethyl-N′-methyl-2-nitrovinylidenediamine] | – | – | – | – | – | – | – | about 2000 ppm | –
11 | CCSCc1ccccc1OC(=O)NC [ethiofencarb, 2-ethylthiomethylphenylmethylcarbamate] | – | – | – | – | – | – | – | – | aqueous solubility ([2]; 20° C.): 1800 ppm
12 | CN1COCN(Cc2cnc(Cl)s2)/C1=N\[N+](=O)[O-] [thiamethoxam] | – | – | – | – | – | – | – | – | aqueous solubility ([2]; 25° C.): 4100 ppm
